From patent US6410029B1, “2-methoxyestradiol-induced apoptosis in cancer cells” (Board of Regents, The University of Texas System, priority 1996, dated 2002)

Assays:
lung cancer cell lines = test: Cell cycle analysis by flow cytometry; assay type: cell-based, human; details: PI labeling, FACScan, 48 h treatment
Method: It has been shown that induction of p21 causes p53-mediated G1 arrest and induces apoptosis. […] The cells were labeled with PI and cell cycle was analyzed by FACScan.

H460 cells [1] = test: TUNEL assay (TdT staining); assay type: cell-based, human; details: H460 cells grown in chamber slides
Method: Terminal deoxynucleotidyl transferase mediated dUTP-biotin nick end labeling (TUNEL) assay was performed as described previously (Fujiwara et al., 1994). […] Cells were incubated in TdT buffer (30 mM Tris Hcl, pH 7.2; 140 mM cacodylate, 1 mM cobalt chloride) and incubated with biotinylated dUTP (Boehringer Mannheim, Indianapolis, Ind.) and 100 U/ml TdT enzyme (Bethesda Research Laboratory) for 1 h at 37° C. The avidin-biotin complex was detected using the Vectastain Elite kit (Vector Laboratory, Burlingame, Calif.), by the diaminobenzidine-H2O2 method.

[2] = test system: p53 protein in normal bronchial epithelial cell lines; test: Western blot analysis of p53 protein, normal bronchial epithelial cell lines; assay type: cell-based
Method: (§1) Control and drug treated cells were washed in cold PBS, lysed in Laemmli's sample buffer, and subjected to western blot analysis as described previously (Mukhopadhyay et al., 1995). Blots were probed with Pab 1801 anti-p53 monoclonal antibody (Oncogene Sciences, Uniondale, N.Y.). The blot was further probed with anti-WAF1 monoclonal antibody (p21).
(§2) Blots were washed in Tris-buffered saline containing 0.1% Tween 20, incubated with horse radish peroxidase conjugated to secondary antibody and specific immunocomplex was detected by enhanced chemiluminescence technique according to the manufacturer's directions (Amersham, Arlington, Ill.). Blots were reprobed with anti-actin monoclonal antibody (Amersham) to show the equal protein loading.

wild-type p53 protein = test: Western blot analysis of p53 protein, wild-type p53 lung cancer cell lines; assay type: cell-based, human
Method: as §1, §2

p53 mRNA = test: Northern blot analysis of p53 mRNA; details: H460, 48 h after treatment
Excerpt: Total RNA was isolated from the subconfluent cultures using the guanidinium thiocyanate method (Chomczynsky and Sacchi, 1987). Twenty micrograms of total RNA was electrophoresed in 1.4% agarose/MOPS formaldehyde gel, transferred to nylon membrane and hybridized to a radiolabeled p53 cDNA probe as described previously (Mukhopadyay and Roth, 1993).

H322 cells (p53 mutated) [3] = test: Apoptosis by FACS analysis, H322 cells; details: mutated cell line, after 48 h of 5 μm treatment
Method: (§6) Control and treated cells were collected by trypsinization, washed in PBS and fixed in 70% ethanol overnight. The next day cells were rehydrated in PBS for 30 min, centrifuged, and resuspended in PBS. For DNA analysis, propidium iodide (Sigma) was added at 50 μg/ml, and the cells were incubated in the presence of RNase at 15 μg/ml for 30 min at 37° C. Flow cytometric analysis was carried out in a fluorescence-activated cell sorter (Coulter Epics Elite).
(§7) Cells also were stained with biotinylated UTP for TUNEL assay to monitor the DNA fragmentation. H460 cells were grown in chamber slides and treated with the drugs and TdT staining was performed as described in Materials and Methods.

[4] = test system: normal human skin fibroblasts; details: even at a 100 μm concentration; cited from earlier work
endothelial cells [5] = details: cited from earlier work
[6] = test system: H460 cells (wild-type p53); test: Growth assay, H460 cell line; assay type: cell-based, human
Method: (§3) Non-small cell lung cancer cell lines H460 (wild-type p53), H358 (p53 deleted), and […] (p53 mutant) were obtained from Drs. Adi Gazdar and John Minna. A549 (wild-type p53) was obtained from ATCC (Rockville, Md.). All cell lines were grown in RPMI 1640 media supplemented with 5% heat inactivated fetal bovine serum and maintained at 5% CO2. All the studies were done when the cells were 70% confluent.
(§4) For cell growth measurements, 5×10^4 cells were plated in each well of six well plates. Control and treated cells were trypsinized and counted using a hemocytotometer. Studies were performed in triplicate.
The inventors tested the effect of 2-MeOE2 treatment on the growth characteristics of four different human lung cancer cell lines differing in their p53 status: H3.58 (p53 deleted), H322 (p53 mutated), H460 (wild-type p53), A549 (wild-type p53).
The cells were treated with 5 μM of 2-MeOE2 or 16-epiestriol (another metabolite of estrogen) and growth of the cells was monitored for five days (FIG. 1).

H358 cells (p53 deleted) = test: Growth assay, H358 cell line; assay type: cell-based, human
Method: as §3, §4
(§5) The inventors tested the effect of 2-MeOE2 treatment on the growth characteristics of four different human lung cancer cell lines differing in their p53 status: H3.58 (p53 deleted), H322 (p53 mutated), H460 (wild-type p53), A549 (wild-type p53). […]

p53 DNA binding activity = test: Electrophoretic mobility shift assay (EMSA), p53 DNA binding; assay type: cell-based, human; details: H460 cells, 5 μm for 48 h
Method: Electrophoretic mobility shift assays (EMSA) were performed using nuclear extract prepared from the H460 cell line. Nuclear extracts were prepared from untreated control and 2-MeOE2 treated cells. Cells were washed in ice cold PBS and scraped into 0.5 ml nuclei harvesting buffer (10 mM HEPES, pH 7.9; 10 mM KCl; 0.1 mM ETA, 1 mM dithiothretol (DTT), 0.1% NP-40; 0.5 mM phenyl methyl-sulfonyl fluoride; […]; 0.5 mg/ml benzamidine). After 30 min of incubation on ice, lysates were centrifuged for 1 min at 4° C. The nuclear pellet was resuspended in nuclear harvesting buffer containing 0.4 M NaCl and incubated on ice for 1 h. The nuclear extracts were microfuged at 12,000 rpm for 30 min at 4° C. and supernatant was stored at −70° C.
To perform electrophoretic mobility shift assays (EMSA), 10 μg of nuclear extract was mixed gently with 0.1 mg of poly (dl-dC) and 1 ng of ^32P-end labeled p53 consensus binding oligonucleotide in binding buffer (25 mM HEPES; pH 7.9; 0.5 mMEDTA; 0.5 mMDTT; 1% NP-40; 5% glycerol; 50 mM NaCl) in total reaction volume 20 μl. One microliter of (1 μg) p53 monoclonal antibody DO1 (Santa Cruz Biotechnology Inc., Calif.) was added to the DNA after binding and incubated for another 15 min to show the supershift. DNA-protein complexes were resolved in native 4.5% polyacrylamide gels. […]

H322 cells (p53 mutated) [7] = test: Growth assay, H322 cell line; assay type: cell-based, human
Method: as §3, §4, §5

A549 cells = test: Apoptosis by FACS analysis, A549 cells
Method: as §6, §7

[8] = test system: normal bronchial epithelium; test: Response of normal bronchial epithelium to 2-MeOE2 treatment; assay type: cell-based
[9] = test system: A549 cells (wild-type p53); test: Growth assay, A549 cell line; assay type: cell-based, human
solid tumors = details: cited from earlier work
H460 cells [10] = test: Apoptosis by FACS analysis, H460 cells
Method: as §6, §7

[11] = test system: breast cancer cell line MCF-7; details: cited from earlier work
mutated p53 protein = test: Western blot analysis of p53 protein, H322 cell line; assay type: cell-based, human
Method: as §1, §2

endothelial cells [12] = details: read-out: half-maximal inhibitory concentration (IC50); cited from earlier work
p21WAF1/CIP1 protein = test: Western blot with WAF1 monoclonal antibody (p21); assay type: cell-based, human
Method: as §1, §2

[13] = test system: colchicine binding site of the tubulin filaments; details: MCF-7 cell line; cited from earlier work
[14] = dose response studies, after 48 h, lung cancer cell lines

Q: For `C[C@]12CC[C@@H]3c4ccc(O)cc4CC[C@H]3[C@@H]1C[C@H](O)[C@@H]2O` [epistriol, 16-epiestriol, reference compound], which “G1 arrest (cell cycle analysis)” value (lung cancer cell lines) is on record?
A: Its value is “no evidence of G1 arrest”.

Q: What about the “DNA fragmentation (TUNEL, TdT staining)” value (H460 cells [1]) of the same compound?
A: Its value is “little DNA fragmentation”.

Q: With `COc1cc2c(cc1O)CC[C@@H]1[C@@H]2CC[C@]2(C)[C@@H](O)CC[C@@H]12` [2-MeOE2, 2-methoxyestradiol] as the compound, how does the “level of p53 protein” value [2] read?
A: The value was “no increase”.

Q: And the “concentration that stimulated p53 to a maximum level” value (wild-type p53 protein; [14])?
A: The value was 5 µM.

Q: What about the “increase of wild-type p53 protein levels” value (wild-type p53 protein; during 48 h of treatment, lung cancer cell lines carrying wild-type p53) of the same compound?
A: The value was 6- to 8 fold.

Q: And the “G1 arrest (cell cycle analysis)” value (lung cancer cell lines)?
A: Its value is “no evidence of G1 arrest”.

Q: What about the “p53 mRNA levels” value (p53 mRNA) of the same compound?
A: Its value is “no change”.

Q: What about the apoptotic cell death (H322 cells (p53 mutated) [3]) of the same compound?
A: Its apoptotic cell death is “no effect”.

Q: What about the “effect on normal human skin fibroblasts” value [4] of the same compound?
A: The value was “no effect”.

Q: What about the angiogenesis in vitro (endothelial cells [5]) of the same compound?
A: Its angiogenesis in vitro is “inhibits”.

Q: And the endothelial cell migration (endothelial cells [5]; in vitro)?
A: The endothelial cell migration was “inhibits”.

Q: And the growth inhibitory effect ([6]; 5 μM, growth monitored for five days, H460 (wild-type p53))?
A: The growth inhibitory effect was “significant growth inhibitory effect”.

Q: What about the “cell death during the growth assay” value ([6]; after 48 h, H460, crystal violet staining) of the same compound?
A: The value was “significant increase in cell death”.

Q: And the growth inhibitory effect (H358 cells (p53 deleted); 5 μM, growth monitored for five days, H358 (p53 deleted))?
A: Its growth inhibitory effect is “virtually no growth inhibitory effect”.

Q: What about the “cell death during the growth assay” value (H358 cells (p53 deleted); after 48 h, H358, crystal violet staining) of the same compound?
A: The value was “only two dead cells”.

Q: What about the “p53 DNA binding activity in nuclear extract vs untreated control” value (p53 DNA binding activity) of the same compound?
A: The value was “three-fold increase”.

Q: What about the growth inhibitory effect (H322 cells (p53 mutated) [7]; 5 μM, growth monitored for five days, H322 (p53 mutated)) of the same compound?
A: Its growth inhibitory effect is “virtually no growth inhibitory effect”.

Q: And the “cell death during the growth assay” value (H322 cells (p53 mutated) [7]; after 48 h, H322, crystal violet staining)?
A: Its value is “only two dead cells”.

Q: And the “peak representing apoptotic cells (PI, FACScan)” value (A549 cells; A549 cell line)?
A: The value was “A peak representing apoptotic cells appeared”.

Q: What about the “apoptosis (DNA strand breaks, UTP-labeled biotin / FITC-avidin)” value (A549 cells; A549 cells) of the same compound?
A: The value was “had undergone apoptosis”.

Q: And the apoptotic cell death (A549 cells; A549 cells, after 48 h of 5 μm treatment, FACS analysis)?
A: Its apoptotic cell death is about 48%.

Q: What about the “DNA fragmentation (TUNEL, TdT staining)” value (H460 cells [1]) of the same compound?
A: Its value is “many apoptotic bodies”.

Q: And the “changes in response to treatment (p53 increase, apoptosis)” value [8]?
A: The value was “did not show the observed changes”.

Q: And the growth inhibitory effect ([9]; 5 μM, growth monitored for five days, A549 (wild-type p53))?
A: Its growth inhibitory effect is “significant growth inhibitory effect”.

Q: And the “cell death during the growth assay” value ([9]; after 48 h, A549, crystal violet staining)?
A: The value was “significant increase in cell death”.

Q: What about the “general cytotoxicity in vivo” value (solid tumors; in vivo studies) of the same compound?
A: The value was “not associated with general cytotoxicity”.

Q: And the “capillary formation in solid tumors” value (solid tumors; oral administration, mice)?
A: Its value is “potent inhibition”.

Q: What about the “growth of solid tumors” value (solid tumors; oral administration, mice) of the same compound?
A: Its value is “reduced growth”.

Q: And the “peak representing apoptotic cells (PI, FACScan)” value (H460 cells [10]; H460 cell line)?
A: Its value is “A peak representing apoptotic cells appeared”.

Q: What about the “apoptosis (DNA strand breaks, UTP-labeled biotin / FITC-avidin)” value (H460 cells [10]; H460 cells) of the same compound?
A: Its value is “had undergone apoptosis”.

Q: And the cytotoxic effect [11]?
A: Its cytotoxic effect is “cytotoxic effect”.

Q: And the “level of the mutated p53 protein” value (mutated p53 protein)?
A: Its value is “no increase”.

Q: What about the IC50 (endothelial cells [12]) of the same compound?
A: The IC50 was 0.15 µM.

Q: What about the “increase in p21 protein expression” value (p21WAF1/CIP1 protein; A549 cell line) of the same compound?
A: The value was 3-5 fold.

Q: What about the “increase in p21 protein expression” value (p21WAF1/CIP1 protein; H460 cell line) of the same compound?
A: The value was 3-5 fold.

Q: And the “concentration that stimulated p21 to a maximum level” value (p21WAF1/CIP1 protein; [14])?
A: The value was 5 µM.

Q: And the binding to tubulin [13]?
A: The binding to tubulin was “bind to the colchicine binding site of the tubulin filaments”.
